Laboratory results reported in patent US9623021B2, “Nuclear receptor binding agents” (GTX, Inc., priority 2007, dated 2017).
“Also recorded” adds a separate entry of the source. Where two headings read alike, the source gives them in different places.

Legend:
[1] = target: ERβ ligand binding domain (Homo sapiens (Human), UniProt Q92731); assay: Competitive [3H]-estradiol radioligand binding, ERβ (Example 21); conditions: for Ki Ratio (ER-α/ER-β): ratio between the binding constants of ER-α and ER-β
Sequence of ERβ ligand binding domain (Q92731 264-498, species assumed): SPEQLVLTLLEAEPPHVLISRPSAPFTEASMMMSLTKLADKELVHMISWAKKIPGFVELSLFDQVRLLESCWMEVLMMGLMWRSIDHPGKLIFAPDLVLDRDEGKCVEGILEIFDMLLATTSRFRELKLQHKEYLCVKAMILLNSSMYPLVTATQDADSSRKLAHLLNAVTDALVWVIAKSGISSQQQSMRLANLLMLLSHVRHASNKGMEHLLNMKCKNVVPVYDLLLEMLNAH
Description: (§1) ER binding affinity was determined via one of the following methods:
(§2) Briefly, the incubation mixture was filtered through a high affinity protein binding filter, and washed several times to remove any unbound radioactivity. The filter plate was air dried and sealed on the bottom.
(§3) Following incubation, plates were harvested onto GF/B filters and radioactivity was measured with a TopCount NXT (PerkinElmer). Nonspecific binding was subtracted from total binding to yield specific binding.

[2] = target: ER-α (Rattus norvegicus (Rat), UniProt P06211); assay type: cell-based; conditions: for Estradiol activity at 100 nM, ER-α: 100 nM NRBA compared to 1 nM estradiol
Description: COS or 293 cells were plated in DME without phenol red+10% cs FBS at 90,000 cells per well in 24 well plates, and were transfected with 0.25 μg of the vector “ERE-LUC”, where a firefly luciferase gene was driven by two estrogen responsive elements and 0.02 μg of the control CMV-LUC, Renilla where a luciferase gene was driven by a CMV promoter. […] All the receptors were cloned from rat tissue into the PCR3.1 vector backbone. Twenty four hours post transfection, cells were treated with compounds of this invention, estrogen, DHT, and other NRBAs or combinations thereof. Cells were harvested 48 hrs after transfection, and assayed for firefly and Renilla luciferase activity.

[3] = target: ER-β (Rattus norvegicus (Rat), UniProt Q62986); assay: ER-β transactivation, ERE-LUC reporter in COS or 293 cells (Example 21B); assay type: cell-based
Sequence of ER-β (Q62986 whole entry, the tested form may be a part): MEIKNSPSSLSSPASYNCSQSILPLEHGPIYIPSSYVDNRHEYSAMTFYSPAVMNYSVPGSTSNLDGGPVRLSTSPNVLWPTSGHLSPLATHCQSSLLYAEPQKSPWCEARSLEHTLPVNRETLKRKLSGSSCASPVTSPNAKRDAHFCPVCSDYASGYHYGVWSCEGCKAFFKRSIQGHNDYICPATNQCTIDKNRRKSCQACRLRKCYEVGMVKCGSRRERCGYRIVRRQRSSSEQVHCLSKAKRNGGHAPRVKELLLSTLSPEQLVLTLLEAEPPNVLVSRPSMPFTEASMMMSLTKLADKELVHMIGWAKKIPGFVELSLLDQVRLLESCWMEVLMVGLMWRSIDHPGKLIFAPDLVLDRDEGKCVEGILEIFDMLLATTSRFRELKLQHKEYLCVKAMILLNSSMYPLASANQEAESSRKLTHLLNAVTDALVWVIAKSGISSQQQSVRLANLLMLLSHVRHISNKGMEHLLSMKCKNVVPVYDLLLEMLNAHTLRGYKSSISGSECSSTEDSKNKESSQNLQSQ

[4] = target: ERα ligand binding domain (Homo sapiens (Human), UniProt P03372); assay: Competitive [3H]-estradiol radioligand binding, ERα (Example 21)
Sequence of ERα ligand binding domain (P03372 whole entry, looked up, species assumed, the tested form may be a part): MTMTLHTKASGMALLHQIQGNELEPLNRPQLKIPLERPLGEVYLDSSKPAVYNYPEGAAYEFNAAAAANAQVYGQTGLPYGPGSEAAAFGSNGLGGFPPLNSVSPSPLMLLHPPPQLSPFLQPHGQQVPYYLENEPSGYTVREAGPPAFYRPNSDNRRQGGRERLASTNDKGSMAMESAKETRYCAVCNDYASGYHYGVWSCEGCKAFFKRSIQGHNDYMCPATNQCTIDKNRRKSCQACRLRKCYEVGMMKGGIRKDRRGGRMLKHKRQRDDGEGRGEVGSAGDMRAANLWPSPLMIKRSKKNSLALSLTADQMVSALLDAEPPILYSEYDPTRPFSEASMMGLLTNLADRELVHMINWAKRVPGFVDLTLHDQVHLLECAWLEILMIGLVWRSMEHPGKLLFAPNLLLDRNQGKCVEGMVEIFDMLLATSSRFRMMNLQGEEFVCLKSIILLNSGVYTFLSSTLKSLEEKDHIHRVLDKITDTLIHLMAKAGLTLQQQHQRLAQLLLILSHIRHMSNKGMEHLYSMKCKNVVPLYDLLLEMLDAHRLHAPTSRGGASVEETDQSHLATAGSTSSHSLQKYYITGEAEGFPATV
Description: as §1, §2, §3

[5] = test system: ARPE-19 cells; assay: Fluorescent detection of intracellular ROS in ARPE-19 cells (tBH oxidative stress); conditions: 150 μM tBH, FIG. 20B
[6] = test system: uterus; assay: Uterotropic assay; conditions: 50 μg/kg/day s.c., 3 days
Description: Statistical differences among groups were evaluated by one-way ANOVA. Rats were treated for 3 consecutive days and then sacrificed 24 h after the last dose. The body of the uterus was cut just above its junction with the cervix and at the junction of the uterine horns with the ovaries. The uterus was weighed with and without intrauterine fluid. Statistical comparisons were made between the weights of empty uteri.

[7] = test system: SHP promoter; assay: SHP promoter-luciferase in HEK-293 cells transfected with FXR and ER-β; assay type: cell-based; conditions: FXR and ER-β plasmids, FIG. 12E right panel
Description: FIG. 12 depict the effect of ER-β ligand on PPAR-γ function through ligand binding domain (LBD). (A). HEK-293 cells were transfected with 0.25 μg PPRE-LUC, 5 ng CMV-renilla LUC and the indicated receptors (PPAR-γ and ER-β for the left panel and PPAR-α and ER-β for the right panel). The cells were treated 24 hrs after transfection with the indicated ligands and harvested 48 hrs after transfection and firefly luciferase activity was measured and normalized to renilla luciferase. (B). H475 in ER-β LBD is important for its function. H475 in ER-β LBD was mutated to alanine (A) using a site directed mutagenesis kit. Transactivation assay was performed as described in panel A in HEK-293 cells with a titration of ER-β ligands in wild type or ER-β H475A. (C). […] HEK-293 cells were transfected with 0.25 μg PPRE-LUC, 5 ng CMV-renilla LUC and 50 ng of the indicated receptors (PPAR-γ or PPAR-γ and wild type ER-β or PPAR-γ and ER-β H475A). The cells were treated 24 hrs after transfection with the indicated ligands and harvested 48 hrs after transfection and firefly luciferase activity was measured and normalized to renilla luciferase. (D). […] HepG2 cells were transfected with 0.25 μg PPRE-LUC, 5 ng CMV-renilla LUC, 0.5 μg PGC-1 or vector backbone and 100 ng of the indicated receptors (PPAR-γ or PPAR-γ and wild type ER-β or PPAR-γ and ER-β H475A for top panels and PPAR-α or PPAR-α and ER-β for bottom panel). The cells were treated 24 hrs after transfection with the indicated ligands and harvested 48 hrs after transfection and firefly luciferase activity was measured and normalized to renilla luciferase. (E). SHP-1 is an ER-β specific target gene. HEK-293 cells were transfected with 0.25 μg SHP-LUC, 5 ng CMV-renilla LUC and 50 ng of the indicated receptors (FXR and ER-α for the left panel and FXR and ER-β for the right panel). The cells were treated 24 hrs after transfection with the indicated ligands and harvested 48 hrs after transfection and firefly luciferase activity was measured and normalized to renilla luciferase. […]

## O=c1c2ccc(O)cc2c(Cl)cn1-c1ccc(O)cc1 [Compound 12f, 4-chloro-6-hydroxy-2-(4-hydroxyphenyl)-isoquinolin-1(2H)-one]
[1]
  Ki Ratio (ER-α/ER-β): 61

## O=c1c2ccc(O)cc2c(I)cn1-c1ccc(O)cc1 [Compound 12h, 6-hydroxy-2-(4-hydroxyphenyl)-4-iodoisoquinolin-1(2H)-one]
[1]
  Ki Ratio (ER-α/ER-β): 22

## O=c1c2c(O)cc(O)cc2ccn1-c1ccc(O)cc1 [Compound 12l, 6,8-dihydroxy-2-(4-hydroxyphenyl)-isoquinolin-1(2H)-one]
[2]; dose 0.1 nM
  ER-α RLU/RenRLU: 0.07 RLU/RenRLU
[2]; dose 1 nM
  ER-α RLU/RenRLU: 0.07 RLU/RenRLU
[2]; dose 10 nM
  ER-α RLU/RenRLU: 0.07 RLU/RenRLU
[2]; dose 100 nM
  ER-α RLU/RenRLU: 0.12 RLU/RenRLU
[2]; dose 1000 nM
  ER-α RLU/RenRLU: 0.24 RLU/RenRLU
[3]; dose 0.1 nM
  ER-β RLU/RenRLU: 0.06 RLU/RenRLU
[3]; dose 1 nM
  ER-β RLU/RenRLU: 0.07 RLU/RenRLU
[3]; dose 10 nM
  ER-β RLU/RenRLU: 0.16 RLU/RenRLU
[3]; dose 100 nM
  ER-β RLU/RenRLU: 0.46 RLU/RenRLU
[3]; dose 1000 nM
  ER-β RLU/RenRLU: 0.55 RLU/RenRLU

## Oc1ccc(-n2ccc3cc(O)cc(O)c3c2=S)cc1 [Compound 12p, 2-(4-hydroxyphenyl)-6,8-dihydroxy-isoquinoline-1(2H)-thione]
[1]
  Ki: 0.017 µM
  Ki Ratio (ER-α/ER-β): 8
[2]
  Estradiol activity at 100 nM, ER-α: 45%

## COc1cc(O)c2c(=O)n(-c3ccc(O)cc3)ccc2c1C#N [Compound 12q, 8-hydroxy-2-(4-hydroxyphenyl)-6-methoxy-1-oxo-1,2-dihydroisoquinoline-5-carbonitrile]
[2]
  Estradiol activity at 100 nM, ER-α: 25%

## O=c1c2c(O)cc(O)cc2ccn1-c1ccc(O)c(F)c1 [Compound 12s, 2-(3-fluoro-4-hydroxyphenyl)-6,8-dihydroxyisoquinolin-1(2H)-one]
[1]
  Ki Ratio (ER-α/ER-β): 25
[2]
  Estradiol activity at 100 nM, ER-α: 29%

## COc1cc(O)c2c(=O)n(-c3ccc(O)cc3)cc(Br)c2c1 [Compound 12v, 4-bromo-8-hydroxy-2-(4-hydroxyphenyl)-6-methoxyisoquinolin-1(2H)-one]
[2]
  Estradiol activity at 100 nM, ER-α: 17%

## O=c1c2c(O)cc(O)cc2c(Br)cn1-c1ccc(O)c(F)c1 [Compound 12z, 4-bromo-6,8-dihydroxy-2-(3-fluoro-4-hydroxyphenyl)isoquinolin-1(2H)-one]
[4]
  Ki: 0.04 µM
[1]
  Ki Ratio (ER-α/ER-β): 12
[5]
  prevention of ROS formation / oxidative damage: able to prevent ROS formation as well as estradiol; also recorded: protected ARPE-19 cells from oxidative damage

## C=Cc1cn(-c2ccc(O)cc2)c(=O)c2c(O)cc(O)cc12 [Compound 14l, 6,8-dihydroxy-2-(4-hydroxyphenyl)-4-vinylisoquinolin-1(2H)-one]
[4]
  Ki: 0.076 µM
[1]
  Ki: 0.006 µM
[2]
  Estradiol activity at 100 nM, ER-α: 50%
[5]
  prevention of ROS formation / oxidative damage: protected ARPE-19 cells from oxidative damage

## COc1ccc(-c2cn(-c3ccc(O)cc3)c(=O)c3ccc(O)cc23)cc1 [Compound 15b, 6-hydroxy-2-(4-hydroxyphenyl)-4-(4-methoxyphenyl)isoquinolin-1(2H)-one]
[1]
  Ki Ratio (ER-α/ER-β): 8.3

## C[C@]12CC[C@@H]3c4ccc(O)cc4CC[C@H]3[C@@H]1CC[C@@H]2O [Estradiol]
[6]
  uterine growth / uterine weight: stimulated the proliferation of uterus significantly

## CC(C)c1onc(-c2c(Cl)cccc2Cl)c1COc1ccc(/C=C/c2cccc(C(=O)O)c2)c(Cl)c1 [GW4064, reference compound]
[7]
  SHP activity: increased its activity significantly
